This is an account of results in patent US12257251B2, “Use of FAK inhibitor in preparation of drug for treating tumors having NRAS mutation” (INXMED (NANJING) CO., LTD., priority 2019, dated 2025).

The nature of data set [1]: Body weight change (tolerability) in the HT-1080 mouse study. Format: in vivo. To be noted: 12.5 mg/kg qd, end of the assay (day 13) versus day 1. As for the experimental part: • 1. Materials and Method: • 1.1. Design of Research • Treatment began when the median tumor volume was between 70-130 mm^3. • 10 mice in the control group, and 7 mice in the treatment group. • Oral gavage once daily. • Control: 0.5% hydroxyethyl cellulose • BI 853520: 50 mg/kg, 25 mg/kg, 12.5 mg/kg, 6 mg/kg, • Tumor volume was measured 3 times a week and body weight was monitored daily. • Evaluation of treatment outcome was based on absolute volume of individual tumors. • Tolerability was assessed based on changes in body weight.
Tumor diameters were measured with calipers three times a week (Monday, Wednesday, and Friday). The volume of each tumor [in mm^3] was calculated according to the equation, “tumor volume=length×diameter^2×π/6”. To monitor the side effects of the treatment, the mice were checked daily for abnormalities and their body weights were measured daily. Animals were sacrificed at the end of the study (approximately two weeks after the start of treatment). During the study, animals with tumor necrosis or tumors larger than 2000 mm^3 were sacrificed ahead of schedule for ethical reasons.
At the end of the assay on day 13, statistical evaluation of tumor volume and body weight parameters was performed. […] A nonparametric approach was used, and the number of observations, median, minimum and maximum values were calculated. […]

The conditions of data set [2]: in vivo.

With `COc1cc(C(=O)NC2CCN(C)CC2)c(F)cc1Nc1ncc(C(F)(F)F)c(Oc2cccc3c2C(=O)N(C)C3)n1` [BI853520], in data set [1], the Median weight change is reported as 5.7%. Further, in data set [2], the “Highest daily dose without limiting toxicity” value came out at 100 mg/kg.
